Several values for one entry are separate records, joined by “and”; a condition that tells them apart may be missing. Equal values may be shown once. Toxic doses and inconclusive results are not listed.
Tested on: L1210 leukemia ip in BDF1 mice, survival T/C
Experiment: NCI In Vivo Anticancer Drug Screen. Data for tumor model L1210 Leukemia (intraperitoneal) in B6D2F1 (BDF1) mice
Settings: higher = longer survival
How it was run: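 Ratio derived from survival: compound-dosed mice over vehicle-dosed mice, all bearing a transplantable tumor.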

[1] = endpoint: mean survival time, dose: 100.0 mg/kg/injection, schedule: Q01DX009 (ip), vehicle: Klucel (hydroxypropylcellulose) (HPC)
[2] = endpoint: mean survival time, dose: 200.0 mg/kg/injection, schedule: Q01DX009 (ip), vehicle: Klucel (hydroxypropylcellulose) (HPC)
[3] = endpoint: mean survival time, dose: 100.0 mg/kg/injection, schedule: Q01DX001 (ip), vehicle: saline
[4] = endpoint: mean survival time, dose: 400.0 mg/kg/injection, schedule: Q01DX001 (ip), vehicle: saline
[5] = endpoint: mean survival time, dose: 25.0 mg/kg/injection, schedule: Q01DX009 (ip), vehicle: saline
[6] = endpoint: mean survival time, dose: 50.0 mg/kg/injection, schedule: Q01DX009 (ip), vehicle: saline
[7] = endpoint: mean survival time, dose: 100.0 mg/kg/injection, schedule: Q01DX009 (ip), vehicle: saline
[8] = endpoint: mean survival time, dose: 200.0 mg/kg/injection, schedule: Q01DX001 (ip), vehicle: saline
[9] = endpoint: mean survival time, dose: 100.0 mg/kg/injection, schedule: Q01DX009 (ip), vehicle: saline with Tween-80
[10] = endpoint: mean survival time, dose: 100.0 mg/kg/injection, schedule: Q04DX003 (ip), vehicle: saline with Tween-80
[11] = endpoint: mean survival time, dose: 200.0 mg/kg/injection, schedule: Q01DX009 (ip), vehicle: saline with Tween-80
[12] = endpoint: mean survival time, dose: 200.0 mg/kg/injection, schedule: Q04DX003 (ip), vehicle: saline with Tween-80
[13] = endpoint: mean survival time, dose: 50.0 mg/kg/injection, schedule: Q01DX009 (ip), vehicle: saline with Tween-80

Nc1ccc(Cc2ccncc2)cc1
T/C (endpoint: mean survival time, dose: 25.0 mg/kg/injection, schedule: Q01DX001 (ip), vehicle: carboxymethylcellulose (CMC)): 105 % of control
T/C (endpoint: mean survival time, dose: 25.0 mg/kg/injection, schedule: Q01DX009 (ip), vehicle: carboxymethylcellulose (CMC)): 102 % of control and 92 % of control
T/C (endpoint: mean survival time, dose: 25.0 mg/kg/injection, schedule: Q04DX002 (ip), vehicle: carboxymethylcellulose (CMC)): 94 % of control
T/C (endpoint: mean survival time, dose: 25.0 mg/kg/injection, schedule: Q04DX003 (ip), vehicle: carboxymethylcellulose (CMC)): 97 % of control
T/C (endpoint: mean survival time, dose: 50.0 mg/kg/injection, schedule: Q01DX001 (ip), vehicle: carboxymethylcellulose (CMC)): 102 % of control
T/C (endpoint: mean survival time, dose: 50.0 mg/kg/injection, schedule: Q01DX009 (ip), vehicle: carboxymethylcellulose (CMC)): 95 % of control and 98 % of control
T/C (endpoint: mean survival time, dose: 50.0 mg/kg/injection, schedule: Q04DX002 (ip), vehicle: carboxymethylcellulose (CMC)): 93 % of control and 103 % of control
T/C (endpoint: mean survival time, dose: 50.0 mg/kg/injection, schedule: Q04DX003 (ip), vehicle: carboxymethylcellulose (CMC)): 100 % of control
T/C (endpoint: mean survival time, dose: 100.0 mg/kg/injection, schedule: Q01DX001 (ip), vehicle: carboxymethylcellulose (CMC)): 103 % of control
T/C (endpoint: mean survival time, dose: 100.0 mg/kg/injection, schedule: Q01DX009 (ip), vehicle: carboxymethylcellulose (CMC)): 94 % of control and 103 % of control
T/C (endpoint: mean survival time, dose: 200.0 mg/kg/injection, schedule: Q04DX002 (ip), vehicle: carboxymethylcellulose (CMC)): 94 % of control

CCCCCSP(=O)(SCCCCC)c1ccccc1
T/C [1]: 91 % of control
T/C [2]: 94 % of control

NC(=S)c1cccc(OCCc2ccccc2)c1
T/C (endpoint: mean survival time, dose: 100.0 mg/kg/injection, schedule: Q01DX001 (ip), vehicle: saline with Tween-80): 97 % of control
T/C (endpoint: mean survival time, dose: 200.0 mg/kg/injection, schedule: Q01DX001 (ip), vehicle: saline with Tween-80): 102 % of control

COc1cccc(/C=N\NC(=O)CCCC(=O)N/N=C/c2cccc(OC)c2)c1
T/C (endpoint: mean survival time, dose: 50.0 mg/kg/injection, schedule: Q01DX001 (ip), vehicle: saline): 87 % of control
T/C [3]: 90 % of control
T/C [4]: 103 % of control

COC(=O)/C=C(\C)Nc1ccc(C(C)=O)cc1
T/C (endpoint: mean survival time, dose: 100.0 mg/kg/injection, schedule: Q04DX003 (ip), vehicle: acetone): 96 % of control
T/C (endpoint: mean survival time, dose: 200.0 mg/kg/injection, schedule: Q04DX003 (ip), vehicle: acetone): 94 % of control
T/C (endpoint: mean survival time, dose: 400.0 mg/kg/injection, schedule: Q04DX003 (ip), vehicle: acetone): 94 % of control

CC[n+]1cccc(NC(=O)c2ccc(NC(=O)c3ccc(C(=O)Nc4ccc5c(ccc[n+]5CC)c4)cc3)cc2)c1
T/C (endpoint: mean survival time, dose: 0.12 mg/kg/injection, schedule: Q01DX015 (oral), vehicle: alkali diluted with saline): 90 % of control
T/C (endpoint: mean survival time, dose: 0.25 mg/kg/injection, schedule: Q01DX015 (oral), vehicle: alkali diluted with saline): 90 % of control
T/C (endpoint: mean survival time, dose: 0.5 mg/kg/injection, schedule: Q01DX015 (oral), vehicle: alkali diluted with saline): 101 % of control
T/C (endpoint: mean survival time, dose: 0.55 mg/kg/injection, schedule: Q01DX Z (ip), vehicle: carboxymethylcellulose (CMC)): 107 % of control
T/C (endpoint: mean survival time, dose: 1.0 mg/kg/injection, schedule: Q01DX015 (oral), vehicle: alkali diluted with saline): 112 % of control
T/C (endpoint: mean survival time, dose: 2.2 mg/kg/injection, schedule: Q01DX Z (ip), vehicle: carboxymethylcellulose (CMC)): 181 % of control
T/C (endpoint: mean survival time, dose: 3.0 mg/kg/injection, schedule: Q01DX015 (ip), vehicle: alkali diluted with saline): 164 % of control
T/C (endpoint: mean survival time, dose: 4.4 mg/kg/injection, schedule: Q01DX Z (ip), vehicle: carboxymethylcellulose (CMC)): 165 % of control
T/C (endpoint: mean survival time, dose: 6.0 mg/kg/injection, schedule: Q01DX015 (ip), vehicle: alkali diluted with saline): 120 % of control
T/C (endpoint: mean survival time, dose: 10.0 mg/kg/injection, schedule: Q01DX Z (ip), vehicle: carboxymethylcellulose (CMC)): 113 % of control
T/C (endpoint: mean survival time, dose: 11.0 mg/kg/injection, schedule: Q01DX001 (ip), vehicle: alkali diluted with saline): 118 % of control
T/C (endpoint: mean survival time, dose: 15.0 mg/kg/injection, schedule: Q01DX Z (ip), vehicle: carboxymethylcellulose (CMC)): 110 % of control
T/C (endpoint: mean survival time, dose: 16.0 mg/kg/injection, schedule: Q01DX001 (ip), vehicle: alkali diluted with saline): 150 % of control
T/C (endpoint: mean survival time, dose: 25.0 mg/kg/injection, schedule: Q01DX015 (ip), vehicle: alkali diluted with saline): 102 % of control

C/C(=C(/CCO)SCCC(=O)c1ccc(C)cc1)N(C=O)Cc1cnc(C)nc1N
T/C (endpoint: mean survival time, dose: 100.0 mg/kg/injection, schedule: Q04DX003 (ip), vehicle: saline): 97 % of control
T/C (endpoint: mean survival time, dose: 200.0 mg/kg/injection, schedule: Q04DX003 (ip), vehicle: saline): 97 % of control
T/C (endpoint: mean survival time, dose: 400.0 mg/kg/injection, schedule: Q04DX003 (ip), vehicle: saline): 93 % of control

CCCCCC[Si](Br)(CCCCCC)CCCCCC
T/C [5]: 102 % of control
T/C [6]: 102 % of control
T/C [3]: 98 % of control
T/C [7]: 98 % of control
T/C [8]: 93 % of control
T/C [4]: 96 % of control

Cc1cn(CC(C)C)c(=O)n(-c2ccccc2)c1=O
T/C (endpoint: mean survival time, dose: 100.0 mg/kg/injection, schedule: Q01DX Z (ip), vehicle: methylcellulose (MC)): 95 % of control

O=[N+]([O-])c1cccc(C=Nc2ccccc2F)c1
T/C [1]: 94 % of control
T/C [2]: 98 % of control
T/C (endpoint: mean survival time, dose: 400.0 mg/kg/injection, schedule: Q01DX009 (ip), vehicle: Klucel (hydroxypropylcellulose) (HPC)): 98 % of control

CC(=O)C[P+](c1ccccc1)(c1ccccc1)c1ccccc1
T/C (endpoint: mean survival time, dose: 12.0 mg/kg/injection, schedule: Q01DX009 (ip), vehicle: saline): 96 % of control
T/C (endpoint: mean survival time, dose: 12.0 mg/kg/injection, schedule: Q04DX003 (ip), vehicle: saline): 104 % of control
T/C [5]: 96 % of control
T/C (endpoint: mean survival time, dose: 25.0 mg/kg/injection, schedule: Q04DX003 (ip), vehicle: saline): 94 % of control
T/C [6]: 112 % of control
T/C (endpoint: mean survival time, dose: 50.0 mg/kg/injection, schedule: Q04DX003 (ip), vehicle: saline): 98 % of control

Nc1nc2ncc(NCc3ccc(C(=O)NC(CCC(=O)O)C(=O)O)cc3)nc2c(=O)[nH]1 (configuration not stated)
T/C [3]: 92 % of control
T/C [7]: 103 % of control
T/C (endpoint: mean survival time, dose: 100.0 mg/kg/injection, schedule: Q04DX002 (ip), vehicle: saline): 96 % of control and 100 % of control
T/C [8]: 91 % of control
T/C (endpoint: mean survival time, dose: 200.0 mg/kg/injection, schedule: Q01DX009 (ip), vehicle: saline): 100 % of control
T/C (endpoint: mean survival time, dose: 200.0 mg/kg/injection, schedule: Q04DX002 (ip), vehicle: saline): 100 % of control and 102 % of control
T/C [4]: 100 % of control
T/C (endpoint: mean survival time, dose: 400.0 mg/kg/injection, schedule: Q01DX009 (ip), vehicle: saline): 96 % of control
T/C (endpoint: mean survival time, dose: 400.0 mg/kg/injection, schedule: Q04DX002 (ip), vehicle: saline): 100 % of control and 105 % of control

CC1CC(C)(C)C(C[NH-])C1[NH-].[Cl][Pt+2][Cl] (configuration not stated)
T/C (endpoint: median survival time, dose: 7.5 mg/kg/injection, schedule: Q01DX009 (ip), vehicle: saline): 189 % of control
T/C (endpoint: median survival time, dose: 15.0 mg/kg/injection, schedule: Q01DX001 (ip), vehicle: saline): 173 % of control
T/C (endpoint: median survival time, dose: 15.0 mg/kg/injection, schedule: Q01DX009 (ip), vehicle: saline): 205 % of control
T/C (endpoint: median survival time, dose: 30.0 mg/kg/injection, schedule: Q01DX001 (ip), vehicle: saline): 189 % of control
T/C (endpoint: median survival time, dose: 30.0 mg/kg/injection, schedule: Q01DX009 (ip), vehicle: saline): 105 % of control
T/C (endpoint: median survival time, dose: 60.0 mg/kg/injection, schedule: Q01DX001 (ip), vehicle: saline): 154 % of control
T/C (endpoint: median survival time, dose: 60.0 mg/kg/injection, schedule: Q01DX009 (ip), vehicle: saline): 87 % of control
T/C (endpoint: median survival time, dose: 120.0 mg/kg/injection, schedule: Q01DX001 (ip), vehicle: saline): 209 % of control

O=[N+]([O-])c1ccc(-c2ccc(Br)cc2)cc1
T/C [9]: 100 % of control
T/C [10]: 101 % of control
T/C [11]: 86 % of control
T/C [12]: 94 % of control
T/C (endpoint: mean survival time, dose: 400.0 mg/kg/injection, schedule: Q04DX003 (ip), vehicle: saline with Tween-80): 103 % of control

CN(C)c1ccc(/C=N/NC(=O)c2ccc(Cl)cc2)cc1
T/C [13]: 100 % of control
T/C [9]: 89 % of control

Cc1ccc(C)c(C(O)C(=O)O)c1 (configuration not stated)
T/C (endpoint: mean survival time, dose: 75.0 mg/kg/injection, schedule: Q01DX001 (ip), vehicle: acetone): 101 % of control
T/C (endpoint: mean survival time, dose: 150.0 mg/kg/injection, schedule: Q01DX001 (ip), vehicle: acetone): 98 % of control
T/C (endpoint: mean survival time, dose: 300.0 mg/kg/injection, schedule: Q01DX001 (ip), vehicle: acetone): 95 % of control

Cc1cc(C)nc(N)c1
T/C (endpoint: mean survival time, dose: 12.5 mg/kg/injection, schedule: Q04DX002 (ip), vehicle: saline): 105 % of control
T/C (endpoint: mean survival time, dose: 25.0 mg/kg/injection, schedule: Q04DX002 (ip), vehicle: saline): 114 % of control

Fc1ccc(NC(=S)SCc2ccc(Cl)c(Cl)c2)cc1F
T/C [13]: 108 % of control
T/C [10]: 102 % of control
T/C [11]: 112 % of control
T/C [12]: 106 % of control
